From US20060251654A1, “Method for treatment of malignant and infectious chronic diseases” (Centro de Inmunologia Molecular, priority 2001, published 2006)

Test system: syngeneic tumor 3LL-D122
Assay: Survival of mice bearing 3LL-D122 tumor after surgery of the primary tumor (Examples 5 and 6)
Type: in vivo, C57BL/6 mice
Settings: EGF-p64 vaccine i.m., two weeks later Cyclophosphamide 50 mg/kg i.v., three days later second vaccine dose; versus vaccine plus saline or Cyclophosphamide only
Protocol: C57BL/6 mice were injected with the syngeneic tumor 3LL-D122 (200,000 cells/animal) in the right plantar pad. The evolution of the tumor was evaluated by measurement of its diameters every 3 days and surgery of the primary tumor was practiced (amputation) when it reached 8-9 mm of diameter. Mice survival, which is depended of spontaneous lung metastases was measured.
Two days after the inoculation of the tumor mice were injected by intramuscular route with a vaccine that contains 4 μg of human EGF conjugated to the p64 protein (EGF-p64) in Montanide ISA 51 (100 μl final volume) and two weeks later they were treated with 50 mg/kg of Cyclophosphamide by intravenous route or with saline solution. After three days, the mice were re-immunized by intramuscular route with a second dose of the EGF-p64 vaccine.
An animal group just was treated by intravenous route with 50 mg/kg of Cyclophosphamide and another one was not treated.
C57BL/6 mice were injected with the syngenic tumor 3LL-D122 as it is described in Example 5.
Two days after to the inoculation of the tumor, mice were injected by intramuscular route with a vaccine that contains 4 μg of human EGF conjugated to the P64 protein (EGF-p64) in Montanide ISA 51 (100 μl final volume) and two weeks later they were treated with 1 mg of anti-CD25 monoclonal antibody by intravenous route or with saline solution as control. […]

Question: Which mice survival does the source give for O=P1(N(CCCl)CCCl)NCCCO1 (stereo not shown) [Cyclophosphamide] here?
Answer: increases the mice survival
